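Method: 48-hour compound exposure of cells in 96-well plates, five concentrations, linear interpolation of endpoints. GI50 is the concentration that inhibits growth by half.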 Calls of active or inactive are those of the source. Rule as the data show it: active = GI50 up to about 1.1 µM and inactive = higher.
Legend:
Experiment in all cases: growth of human tumour cells (NCI), 48 h
NCI-H23 = test system: NCI-H23
IGROV-1 = test system: IGROV-1
A498 = test system: A498
SF-539 = test system: SF-539
KM12 = test system: KM12
SN12C = test system: SN12C
UACC-62 = test system: UACC-62
DU-145 = test system: DU-145
SNB-75 = test system: SNB-75
SF-268 = test system: SF-268
SK-MEL-2 = test system: SK-MEL-2
M14 = test system: M14
COLO 205 = test system: COLO 205
MDA-MB-435 = test system: MDA-MB-435
UO-31 = test system: UO-31
ACHN = test system: ACHN
HCT-116 = test system: HCT-116
PC-3 = test system: PC-3
MCF7 = test system: MCF7
786-0 = test system: 786-0

Measured: GI50

c1ccc(CSC(SCc2ccccc2)c2cccc3ccccc23)cc1
inactive: NCI-H23 3.82 µM | IGROV-1 > 10 µM | A498 > 10 µM | SF-539 > 10 µM | KM12 > 10 µM | SN12C > 10 µM | UACC-62 > 10 µM | DU-145 > 10 µM | SNB-75 > 10 µM | SF-268 > 10 µM | SK-MEL-2 > 10 µM | M14 > 10 µM | COLO 205 > 10 µM | MDA-MB-435 > 10 µM | UO-31 > 10 µM | ACHN > 10 µM | HCT-116 > 10 µM | PC-3 > 10 µM | MCF7 > 10 µM

Cc1cn(Cc2cnnn2CC2OC(n3cc(C)c(=O)[nH]c3=O)CC2O)c(=O)[nH]c1=O (configuration not stated)
inactive: NCI-H23 > 100 µM | IGROV-1 > 100 µM | A498 > 100 µM | SF-539 > 100 µM | KM12 > 100 µM | SN12C > 100 µM | UACC-62 > 100 µM | DU-145 > 100 µM | SF-268 > 100 µM | SK-MEL-2 > 100 µM | M14 > 100 µM | COLO 205 > 100 µM | MDA-MB-435 > 100 µM | UO-31 > 100 µM | ACHN > 100 µM | HCT-116 > 100 µM | PC-3 > 100 µM | MCF7 > 100 µM

O=c1c(-c2ccccc2)c(SCCCN2CCCCC2)n(-c2ccccc2)c(=S)n1-c1ccccc1
inactive: NCI-H23 19 µM | IGROV-1 17.9 µM | A498 15.1 µM | SF-539 15.7 µM | KM12 19.4 µM | UACC-62 16.1 µM | DU-145 17.7 µM | SNB-75 15.3 µM | SK-MEL-2 15.9 µM | COLO 205 17.6 µM | MDA-MB-435 17.7 µM | ACHN 17.4 µM | PC-3 16.5 µM | MCF7 15.6 µM

FC(F)(F)C(C1=NC(C(F)(F)F)(C(F)(F)F)N=C(N2CCOCC2)O1)C(F)(F)F
inactive: NCI-H23 > 10 µM | IGROV-1 19.6 µM | SF-539 22.4 µM | KM12 39.3 µM | SN12C 11.1 µM | UACC-62 13.5 µM | DU-145 35.5 µM | SNB-75 29.5 µM | SF-268 36.1 µM | SK-MEL-2 22.2 µM | M14 18.8 µM | COLO 205 14.3 µM | MDA-MB-435 15.3 µM | UO-31 25.4 µM | ACHN 17.4 µM | HCT-116 27.7 µM | PC-3 16.9 µM | MCF7 > 10 µM

O=C(c1cccs1)N(C(=S)OC12CC3CC(CC(C3)C1)C2)c1ccccc1
inactive: NCI-H23 30.2 µM | A498 33.2 µM | SF-539 34.5 µM | KM12 31.9 µM | SN12C 27 µM | UACC-62 25.6 µM | DU-145 84.7 µM | SNB-75 85.7 µM | SF-268 37.6 µM | SK-MEL-2 18.2 µM | M14 19.2 µM | COLO 205 17.7 µM | MDA-MB-435 29.8 µM | UO-31 18.7 µM | ACHN 33 µM | HCT-116 22.2 µM | PC-3 22.8 µM | 786-0 35.4 µM | MCF7 30.7 µM

CN(C)c1ccc(C2SCC(=O)N2NS(=O)(=O)c2cccc(C(=O)O)c2)cc1 (configuration not stated)
inactive: NCI-H23 > 100 µM | IGROV-1 > 100 µM | SF-539 46.3 µM | KM12 > 100 µM | SN12C > 100 µM | UACC-62 > 100 µM | DU-145 > 100 µM | SNB-75 > 100 µM | SF-268 > 100 µM | SK-MEL-2 > 100 µM | M14 > 100 µM | COLO 205 > 100 µM | MDA-MB-435 > 100 µM | UO-31 72.8 µM | ACHN > 100 µM | HCT-116 > 100 µM | PC-3 > 100 µM | 786-0 17.2 µM | MCF7 64.9 µM

Reference: ChEMBL document CHEMBL1201862, “PubChem BioAssay data set” (2004)
